From patent US10590140B2, “Tetrahydropyrimidodiazepine and dihydropyridodiazepine compounds for treating pain and pain related conditions” (ESTEVE PHARMACEUTICALS, S.A., priority 2016, dated 2020)

Target: human α2δ-1 subunit of Cav2.2 calcium channel (Homo sapiens (Human), UniProt P54289)
Assay: Binding assay to human α2δ-1 subunit of Cav2.2 calcium channel ([3H]-Gabapentin)
Details: binding to α2δ-1, [3H]-Gabapentin; read-out: Ki (nM) α2δ-1
Procedure, shortened: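 Radioactivity on dried GF/C filters quantified by scintillation after filtration and three cold Tris-HCl (pH 7.4) washes. Incubation ran 60 min at 27° C with [3H]-gabapentin; 10 μM pregabalin gave nonspecific binding.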

human α2δ-1 subunit of Cav2.2 calcium channel, sequence (P54289 25-1103): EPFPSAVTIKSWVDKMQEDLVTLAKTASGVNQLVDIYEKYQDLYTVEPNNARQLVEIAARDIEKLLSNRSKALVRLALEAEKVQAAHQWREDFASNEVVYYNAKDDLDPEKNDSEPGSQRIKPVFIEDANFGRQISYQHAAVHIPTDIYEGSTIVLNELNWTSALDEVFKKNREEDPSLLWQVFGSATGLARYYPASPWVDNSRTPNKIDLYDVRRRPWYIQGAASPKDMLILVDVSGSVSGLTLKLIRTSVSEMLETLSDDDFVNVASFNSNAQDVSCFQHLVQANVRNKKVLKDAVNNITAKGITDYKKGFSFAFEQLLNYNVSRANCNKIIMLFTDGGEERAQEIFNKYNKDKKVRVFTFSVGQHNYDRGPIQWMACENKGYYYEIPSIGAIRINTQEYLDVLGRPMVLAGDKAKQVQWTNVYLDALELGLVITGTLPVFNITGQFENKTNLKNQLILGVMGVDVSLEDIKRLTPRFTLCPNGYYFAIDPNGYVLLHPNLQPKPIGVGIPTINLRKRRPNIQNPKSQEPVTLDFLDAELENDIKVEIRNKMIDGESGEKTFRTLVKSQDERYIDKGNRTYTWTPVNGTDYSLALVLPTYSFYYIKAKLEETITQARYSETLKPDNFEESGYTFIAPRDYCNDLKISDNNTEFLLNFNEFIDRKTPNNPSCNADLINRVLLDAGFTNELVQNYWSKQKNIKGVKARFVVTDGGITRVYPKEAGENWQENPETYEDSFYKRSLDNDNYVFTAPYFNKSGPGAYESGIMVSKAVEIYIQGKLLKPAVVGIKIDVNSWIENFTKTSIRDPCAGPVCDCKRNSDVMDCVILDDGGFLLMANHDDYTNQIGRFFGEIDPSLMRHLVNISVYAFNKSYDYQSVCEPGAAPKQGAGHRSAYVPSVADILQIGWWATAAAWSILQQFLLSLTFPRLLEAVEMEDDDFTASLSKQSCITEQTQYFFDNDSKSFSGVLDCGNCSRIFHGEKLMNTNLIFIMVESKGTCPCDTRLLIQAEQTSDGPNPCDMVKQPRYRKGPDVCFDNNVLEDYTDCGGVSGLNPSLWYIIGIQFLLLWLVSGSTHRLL

CN(CCC(OCc1cccc(N2CCN(C)c3cc(Cl)ncc3C2=O)c1)c1ccccc1)C(=O)OC(C)(C)C (stereo not shown) [Example 300, tert-butyl (3-((3-(8-chloro-1-methyl-5-oxo-1,2,3,5-tetrahydro-4H-pyrido[4,3-e][1,4]diazepin-4-yl)benzyl)oxy)-3-phenylpropyl)(methyl) carbamate]
Ki: > 3000 nM

Cc1cc2c(cn1)C(=O)N(Cc1ccc(O[C@@H](CCN(C)C(=O)OCC[Si](C)(C)C)c3cccs3)cc1)CCN2C [Example 301, 2-(trimethylsilyl)ethyl (S)-(3-(4-((1,8-dimethyl-5-oxo-1,2,3,5-tetrahydro-4H-pyrido[4,3-e][1,4]diazepin-4-yl)methyl)phenoxy)-3-(thiophen-2-yl)propyl)(methyl) carbamate]
Ki: > 3000 nM

Cc1cc2c(cn1)C(=O)N(c1cccc(OC(CCN(C)C(=O)OCC[Si](C)(C)C)c3cccs3)c1)CCN2C (stereo not shown) [Example 302, 2-(trimethylsilyl)ethyl (3-(3-(1,8-dimethyl-5-oxo-1,2,3,5-tetrahydro-4H-pyrido[4,3-e][1,4]diazepin-4-yl)phenoxy)-3-(thiophen-2-yl)propyl) (methyl)carbamate]
Ki: > 3000 nM

Cc1cc2c(cn1)C(=O)N(c1cccc(COC(CCN(C)C(=O)OC(C)(C)C)c3ccccc3)c1)CCN2C (stereo not shown) [Example 303, tert-butyl (3-((3-(1,8-dimethyl-5-oxo-1,2,3,5-tetrahydro-4H-pyrido[4,3-e][1,4]diazepin-4-yl)benzyl)oxy)-3-phenylpropyl)(methyl) carbamate]
Ki: > 3000 nM

CNCCC(OCc1cccc(N2CCN(C)c3cc(C)ncc3C2=O)c1)c1ccccc1 (stereo not shown) [Example 306, 1,8-dimethyl-4-(3-((3-(methylamino)-1-phenylpropoxy)methyl)phenyl)-1,2,3,4-tetrahydro-5H-pyrido[4,3-e] [1,4]diazepin-5-one]
Ki: 500 to 3000 nM

CCNc1ncc2c(n1)N(C)CCN(c1cccc(C(=O)OC)c1)C2=O [Example 309, methyl 3-(2-(ethylamino)-9-methyl-5-oxo-5,7,8,9-tetrahydro-6H-pyrimido[4,5-e][1,4]diazepin-6-yl)benzoate]
Ki: 100 to 500 nM

CCNc1ncc2c(n1)N(C)CCN(c1cccc(Br)c1)C2=O [Example 311, 6-(3-bromophenyl)-2-(ethylamino)-9-methyl-6,7,8,9-tetrahydro-5H-pyrimido[4,5-e][1,4]diazepin-5-one]
Ki: 500 to 3000 nM

CCNc1ncc2c(n1)N(C)CCN(c1cccc(N3CCC(c4ccccc4)(N(C)C)CC3)c1)C2=O [Example 312, 6-(3-(4-(dimethylamino)-4-phenylpiperidin-1-yl)phenyl)-2-(ethylamino)-9-methyl-6,7,8,9-tetrahydro-5H-pyrimido[4,5-e][1,4]diazepin-5-one]
Ki: 500 to 3000 nM

CCNc1ncc2c(n1)N(C)CCN(c1cccc(C(=O)O)c1)C2=O [Example 313, 3-(2-(ethylamino)-9-methyl-5-oxo-5,7,8,9-tetrahydro-6H-pyrimido[4,5-e][1,4]diazepin-6-yl)benzoic acid]
Ki: > 3000 nM

CCNc1ncc2c(n1)N(C)CCN(c1cccc(C(=O)N3CCC(c4ccccc4)(N(C)C)CC3)c1)C2=O [Example 314, 6-(3-(4-(dimethylamino)-4-phenylpiperidine-1-carbonyl)phenyl)-2-(ethylamino)-9-methyl-6,7,8,9-tetrahydro-5H-pyrimido[4,5-e][1,4]diazepin-5-one]
Ki: > 3000 nM

CNCCC(OCc1cccc(N2CCN(C)c3ccncc3C2=O)c1)c1ccccc1 (stereo not shown) [Example 317, 1-methyl-4-(3-((3-(methylamino)-1-phenylpropoxy)methyl)phenyl)-1,2,3,4-tetrahydro-5H-pyrido[4,3-e][1,4]diazepin-5-one]
Ki: 500 to 3000 nM

CNCCC(OCc1ccccc1N1CCN(C)c2nc(SC)ncc2C1=O)c1ccccc1 (stereo not shown) [Example 318, 9-methyl-6-(2-((3-(methylamino)-1-phenylpropoxy)methyl)phenyl)-2-(methylthio)-6,7,8,9-tetrahydro-5H-pyrimido[4,5-e][1,4]diazepin-5-one]
Ki: > 3000 nM

CNCC(Oc1ccccc1N1CCN(C)c2nc(SC)ncc2C1=O)c1ccccc1 (stereo not shown) [Example 319, 9-methyl-6-(2-(2-(methylamino)-1-phenylethoxy)phenyl)-2-(methylthio)-6,7,8,9-tetrahydro-5H-pyrimido[4,5-e][1,4]diazepin-5-one]
Ki: > 3000 nM

CNCC(OCc1ccccc1N1CCN(C)c2nc(SC)ncc2C1=O)c1ccccc1 (stereo not shown) [Example 320, 9-methyl-6-(2-((2-(methylamino)-1-phenylethoxy)methyl)phenyl)-2-(methylthio)-6,7,8,9-tetrahydro-5H-pyrimido[4,5-e][1,4]diazepin-5-one]
Ki: > 3000 nM

CNCC[C@H](OCc1cccc(N2CCN(C)c3nc(N)ncc3C2=O)c1)c1ccccc1 [Example 332, (S)-2-amino-9-methyl-6-(3-((3-(methylamino)-1-phenylpropoxy)methyl)phenyl)-6,7,8,9-tetrahydro-5H-pyrimido[4,5-e][1,4]diazepin-5-one]
Ki: > 3000 nM

CCNc1ncc2c(n1)N(C)CCN(c1ccccc1COC(CCNC)c1ccccc1)C2=O (stereo not shown) [Example 337, 2-(ethylamino)-9-methyl-6-(2-((3-(methylamino)-1-phenylpropoxy)methyl)phenyl)-6,7,8,9-tetrahydro-5H-pyrimido[4,5-e][1,4]diazepin-5-one]
Ki: > 3000 nM

CCNc1ncc2c(n1)N(C)CCN(c1ccccc1OC(CNC)c1ccccc1)C2=O (stereo not shown) [Example 338, 2-(ethylamino)-9-methyl-6-(2-(2-(methylamino)-1-phenylethoxy)phenyl)-6,7,8,9-tetrahydro-5H-pyrimido[4,5-e][1,4]diazepin-5-one]
Ki: > 3000 nM

CCNc1ncc2c(n1)N(C)CCN(c1ccccc1COC(CNC)c1ccccc1)C2=O (stereo not shown) [Example 339, 2-(ethylamino)-9-methyl-6-(2-((2-(methylamino)-1-phenylethoxy)methyl)phenyl)-6,7,8,9-tetrahydro-5H-pyrimido[4,5-e][1,4]diazepin-5-one]
Ki: > 3000 nM

CCNc1ncc2c(n1)N(C)CCN(c1cccc(COC(CCNCCF)c3cccs3)c1)C2=O (stereo not shown) [Example 345, 2-(ethylamino)-6-(3-((3-((2-fluoroethyl)amino)-1-(thiophen-2-yl)propoxy)methyl)phenyl)-9-methyl-6,7,8,9-tetrahydro-5H-pyrimido[4,5-e][1,4]diazepin-5-one]
Ki: 100 to 500 nM

CNCCC(Oc1ccc(N2CCN(C)c3ncncc3C2=O)cc1)c1ccccc1 (stereo not shown) [Example 361, 9-methyl-6-(4-(3-(methylamino)-1-phenylpropoxy)phenyl)-6,7,8,9-tetrahydro-5H-pyrimido[4,5-e][1,4]diazepin-5-one]
Ki: > 3000 nM

CNCC(Oc1ccccc1N1CCN(C)c2ncncc2C1=O)c1ccccc1 (stereo not shown) [Example 362, 9-methyl-6-(2-(2-(methylamino)-1-phenylethoxy)phenyl)-6,7,8,9-tetrahydro-5H-pyrimido[4,5-e][1,4]diazepin-5-one]
Ki: > 3000 nM

CNCCC(OCc1ccccc1CN1CCN(C)c2nc(SC)ncc2C1=O)c1ccccc1 (stereo not shown) [Example 365, 9-methyl-6-(2-((3-(methylamino)-1-phenylpropoxy)methyl)benzyl)-2-(methylthio)-6,7,8,9-tetrahydro-5H-pyrimido[4,5-e][1,4]diazepin-5-one]
Ki: > 3000 nM

CNCCC(Oc1ccccc1CN1CCN(C)c2nc(SC)ncc2C1=O)c1ccccc1 (stereo not shown) [Example 370, 9-methyl-6-(2-(3-(methylamino)-1-phenylpropoxy)benzyl)-2-(methylthio)-6,7,8,9-tetrahydro-5H-pyrimido[4,5-e][1,4]diazepin-5-one]
Ki: > 3000 nM

CNCC(Oc1ccccc1CN1CCN(C)c2nc(SC)ncc2C1=O)c1ccccc1 (stereo not shown) [Example 371, 9-methyl-6-(2-(2-(methylamino)-1-phenylethoxy)benzyl)-2-(methylthio)-6,7,8,9-tetrahydro-5H-pyrimido[4,5-e][1,4]diazepin-5-one]
Ki: > 3000 nM

CNCC(OCc1ccccc1CN1CCN(C)c2nc(SC)ncc2C1=O)c1ccccc1 (stereo not shown) [Example 373, 9-methyl-6-(2-((2-(methylamino)-1-phenylethoxy)methyl)benzyl)-2-(methylthio)-6,7,8,9-tetrahydro-5H-pyrimido[4,5-e][1,4]diazepin-5-one]
Ki: > 3000 nM

CNCCC(Oc1ccc(CN2CCN(C)c3nc(OC)ncc3C2=O)cc1)c1ccccc1F (stereo not shown) [Example 376, 6-(4-(1-(2-fluorophenyl)-3-(methylamino)propoxy)benzyl)-2-methoxy-9-methyl-6,7,8,9-tetrahydro-5H-pyrimido[4,5-e][1,4]diazepin-5-one]
Ki: 500 to 3000 nM

CNCC[C@H](Oc1ccc(CN2CCN(C)c3ccncc3C2=O)cc1)c1ccccc1 [Example 377, (S)-1-methyl-4-(4-(3-(methylamino)-1-phenylpropoxy)benzyl)-1,2,3,4-tetrahydro-5H-pyrido[4,3-e][1,4]diazepin-5-one]
Ki: 500 to 3000 nM

CNCCC(Oc1ccc(CN2CCN(C)c3nc(OC)ncc3C2=O)cc1)c1nccs1 (stereo not shown) [Example 390, 2-methoxy-9-methyl-6-(4-(3-(methylamino)-1-(thiazol-2-yl)propoxy)benzyl)-6,7,8,9-tetrahydro-5H-pyrimido[4,5-e][1,4]diazepin-5-one]
Ki: 100 to 500 nM

CNCC[C@H](Oc1ccc(CN2CCN(C)c3nc(OC)ncc3C2=O)cc1C)c1cccs1 [Example 393, (S)-2-methoxy-9-methyl-6-(3-methyl-4-(3-(methylamino)-1-(thiophen-2-yl)propoxy)benzyl)-6,7,8,9-tetrahydro-5H-pyrimido[4,5-e][1,4]diazepin-5-one]
Ki: 100 to 500 nM

CCN1CCN(Cc2ccc(O[C@@H](CCNC)c3cccs3)cc2)C(=O)c2cnc(OC)nc21 [Example 395]
Ki: 100 to 500 nM

CNCCC(Oc1ccc(CN2CCN(C)c3nc(OC)ncc3C2=O)cc1)c1cc(C)cs1 (stereo not shown) [Example 396, 2-methoxy-9-methyl-6-(4-(3-(methylamino)-1-(4-methylthiophen-2-yl)propoxy)benzyl)-6,7,8,9-tetrahydro-5H-pyrimido[4,5-e][1,4]diazepin-5-one]
Ki: 100 to 500 nM
